Test systems include A549 NSCLC; KM12 colon; MOLT-4 leukemia; NCI-H23 lung; PC-3 prostate; RPMI-8226 leukemia; RXF 393 renal; SF-268 CNS; SF-539 CNS; SNB-75 CNS.
Holding throughout (test): growth of human tumour cells (NCI), 48 h

Where “and” joins values, the source holds several entries; their conditions need not be identical. Equal entries are not always repeated.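 In this assay, cells in 96-well plates receive the compound at five concentrations for 48 hours. Endpoints are linearly interpolated between the surrounding concentrations. Here, GI50 denotes the concentration required for 50% inhibition of growth. TGI denotes the concentration required for complete inhibition of growth.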

Take `Cc1cc(Br)cc(C)c1NC(=O)C(=O)Nn1c(=S)[nH]c2ccccc2c1=O`: the TGI with A549 NSCLC, in the assay with KM12 colon, in the assay with MOLT-4 leukemia, with NCI-H23 lung, in the assay with PC-3 prostate and in the assay on RPMI-8226 leukemia was more than 100 µM in each case. Further, the TGI with RXF 393 renal, with SF-268 CNS, with SF-539 CNS and with SNB-75 CNS was more than 100 µM throughout.

In the case of `COc1cc(Cn2c(-c3ccccc3)cc3c2-c2oncc2CC3)cc(OC)c1`, the GI50 in the assay with A549 NSCLC is 0.404 µM; in the assay on KM12 colon, 313 nM; with MOLT-4 leukemia, 427 nM; in the assay with NCI-H23 lung it was 0.452 µM; in the assay with PC-3 prostate, 0.677 µM; with RPMI-8226 leukemia, 459 nM. The GI50 is 296 nM in the assay on RXF 393 renal, 876 nM in the assay with SF-268 CNS, 297 nM with SF-539 CNS and 0.201 µM with SNB-75 CNS. Besides, the TGI in the assay with A549 NSCLC was more than 100 µM; with KM12 colon, 9.76 µM; in the assay with MOLT-4 leukemia, more than 100 µM; in the assay with NCI-H23 lung, more than 100 µM; in the assay with PC-3 prostate it was more than 100 µM; in the assay on RXF 393 renal, more than 100 µM. In addition, the TGI in the assay with SF-268 CNS is more than 100 µM; in the assay with SF-539 CNS, more than 49 µM; in the assay with SNB-75 CNS, 20.1 µM.

For `COc1cccc(NC2=C(Cl)C(=O)N(Cc3ccc(Cl)cc3)C2=O)c1`, the GI50 in the assay on A549 NSCLC is 2.67 µM; in the assay with KM12 colon it was 2340 nM; in the assay with MOLT-4 leukemia, 1360 nM; in the assay with NCI-H23 lung, 2.84 µM; in the assay with PC-3 prostate it was 1.68 µM; with RPMI-8226 leukemia, 985 nM. For the same compound, the GI50 was 788 nM with RXF 393 renal, 3020 nM in the assay on SF-268 CNS, 1730 nM in the assay on SF-539 CNS and 3.22 µM with SNB-75 CNS. Besides, the TGI is 26.8 µM in the assay on A549 NSCLC; 30.5 µM in the assay with KM12 colon; more than 100 µM in the assay on MOLT-4 leukemia; 9.81 µM in the assay with NCI-H23 lung; 10.4 µM with PC-3 prostate; more than 20.3 µM in the assay with RPMI-8226 leukemia. Moreover, the TGI in the assay on RXF 393 renal was 6.26 µM; in the assay on SF-268 CNS, 13.9 µM; in the assay on SF-539 CNS, 5.7 µM; in the assay with SNB-75 CNS it was more than 100 µM.

Regarding `COc1cc(/C=N/NC(=O)c2ccccc2Nc2cccc(C(F)(F)F)c2)cc(OC)c1OC`, the GI50 in the assay with A549 NSCLC is 3.6 µM; in the assay on KM12 colon, 1290 nM; in the assay with MOLT-4 leukemia it was 3140 nM; with NCI-H23 lung, 6.37 µM; in the assay with PC-3 prostate, 3.34 µM; in the assay on RPMI-8226 leukemia, 754 nM. Besides, the GI50 in the assay on RXF 393 renal is 2350 nM; in the assay on SF-268 CNS, 2050 nM; in the assay with SF-539 CNS, 2140 nM; in the assay on SNB-75 CNS it was 1.54 µM. The TGI in the assay on A549 NSCLC is 10.8 µM; in the assay on KM12 colon it was 4.17 µM; in the assay with MOLT-4 leukemia it was 15.3 µM; with NCI-H23 lung it was 23.1 µM; with PC-3 prostate, more than 28.1 µM; in the assay with RPMI-8226 leukemia, more than 22.7 µM. Also, the TGI with RXF 393 renal is 5.87 µM; in the assay on SF-268 CNS, 7.99 µM; in the assay on SF-539 CNS it was 5.62 µM; with SNB-75 CNS, 10.4 µM.

Consider `Cc1c(Cl)cccc1NC(=O)c1sc2nc3c(cc2c1N)CCCC3`, for which the GI50 in the assay on A549 NSCLC is 0.984 µM; in the assay on KM12 colon, 482 nM; with MOLT-4 leukemia it was 481 nM; with NCI-H23 lung it was 9.15 µM; in the assay on PC-3 prostate, 1.11 µM; in the assay on RPMI-8226 leukemia it was 1610 nM. The GI50 in the assay with RXF 393 renal is 514 nM; in the assay on SF-268 CNS, 786 nM; in the assay on SF-539 CNS it was 328 nM; in the assay with SNB-75 CNS, 0.282 µM. Moreover, the TGI in the assay with A549 NSCLC, with KM12 colon, in the assay with MOLT-4 leukemia, in the assay with NCI-H23 lung, with PC-3 prostate and in the assay with RPMI-8226 leukemia was more than 100 µM in each case. Further, the TGI in the assay on RXF 393 renal was more than 89.6 µM; in the assay on SF-268 CNS, more than 100 µM; in the assay with SNB-75 CNS it was more than 66.1 µM.

On to `Oc1ccc(Cl)cc1/C=N\NC(=S)N/N=C/c1cc(Cl)ccc1O`, for which the GI50 with A549 NSCLC is 3.75 µM; with KM12 colon, 2680 nM; in the assay with MOLT-4 leukemia, 2230 nM; with NCI-H23 lung, 4.61 µM; in the assay on PC-3 prostate, 3.13 µM; in the assay on RPMI-8226 leukemia, 3450 nM. Moreover, the GI50 in the assay on RXF 393 renal is 2030 nM; in the assay with SF-268 CNS, 1720 nM; in the assay with SF-539 CNS, 2800 nM; with SNB-75 CNS, 6.35 µM. Also, the TGI in the assay on A549 NSCLC was more than 100 µM; with KM12 colon, 44.7 µM; with MOLT-4 leukemia, 7.62 µM; in the assay with NCI-H23 lung it was 67.7 µM; in the assay with PC-3 prostate, more than 100 µM; in the assay with RPMI-8226 leukemia it was 34.9 µM. In addition, the TGI was 6.83 µM in the assay on RXF 393 renal, more than 100 µM with SF-268 CNS, 90.8 µM in the assay with SF-539 CNS and more than 100 µM in the assay on SNB-75 CNS.

In the case of H-QIYKKYRTWYRKAWKVLGKV-NH2, the GI50 with A549 NSCLC is 12.7 µM; in the assay on KM12 colon it was 2970 nM; with MOLT-4 leukemia, 11700 nM; in the assay on NCI-H23 lung it was 3.96 µM; with PC-3 prostate, 3.82 µM; in the assay on RPMI-8226 leukemia it was 6850 nM. Also, the GI50 in the assay with RXF 393 renal is 4550 nM; with SF-268 CNS, 3990 nM; in the assay with SF-539 CNS it was 2210 nM; in the assay on SNB-75 CNS it was 6.06 µM. Also, the TGI in the assay with A549 NSCLC came out at 47.7 µM; in the assay on KM12 colon, 9.37 µM; with MOLT-4 leukemia it was 79.5 µM; in the assay with NCI-H23 lung, 30.1 µM; in the assay with PC-3 prostate, 20 µM; in the assay with RPMI-8226 leukemia, 77.7 µM. The TGI with RXF 393 renal was 27.4 µM; in the assay with SF-268 CNS it was 30.5 µM; with SF-539 CNS, 4.98 µM; in the assay with SNB-75 CNS, 22.5 µM.

For the compound `CC(/C=N/N=C(N)N)=N\N=C(N)N`, the GI50 with A549 NSCLC is more than 52.4 µM; with KM12 colon, 21500 nM; in the assay with MOLT-4 leukemia, 28200 nM; in the assay on NCI-H23 lung it was 31.1 µM; in the assay with PC-3 prostate, 40.3 µM; with RPMI-8226 leukemia, more than 42800 nM. In addition, the GI50 with RXF 393 renal is more than 45600 nM; in the assay on SF-268 CNS it was 23100 nM; in the assay on SF-539 CNS it was 21800 nM; with SNB-75 CNS it was 28.3 µM. The TGI in the assay on A549 NSCLC was 1780 µM; with KM12 colon, 34.4 µM; with MOLT-4 leukemia it was 463 µM; in the assay with NCI-H23 lung it was > 61.8 µM and 171 µM; in the assay on PC-3 prostate, 1300 µM; in the assay with RPMI-8226 leukemia it was 454 µM. The TGI in the assay on RXF 393 renal stood at 734 µM; in the assay with SF-268 CNS it was 92.4 µM; in the assay on SF-539 CNS, 103 µM; in the assay on SNB-75 CNS it was 187 µM.

(Values after PubChem BioAssay (NCI).)
